Target: T1, human full-length MKNK1 (Homo sapiens, UniProt Q9BUB5, T385D)
T1 construct: GST (N); purchased Carna Biosciences 02-145; host or cells: insect cells (baculovirus expression system)
Assay: MKNK1 kinase high ATP assay (TR-FRET)
Format: biochemical
Details: TR-FRET, 2 mM ATP (high ATP), 15 min preincubation with enzyme, 30 min reaction at 22° C.; read-out: MKNK1 IC50
Summary of the method: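 Full-length human MKNK1 (T385D) preincubated 15 min at 22 °C with compound in HEPES pH 7.5/MgCl2/DTT buffer; reaction with 2 mM ATP (final) and 0.06 μM biotinylated peptide (final), 30 min at 22 °C.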

T1 sequence (Q9BUB5 1-424 isoform Q9BUB5-2 T344D): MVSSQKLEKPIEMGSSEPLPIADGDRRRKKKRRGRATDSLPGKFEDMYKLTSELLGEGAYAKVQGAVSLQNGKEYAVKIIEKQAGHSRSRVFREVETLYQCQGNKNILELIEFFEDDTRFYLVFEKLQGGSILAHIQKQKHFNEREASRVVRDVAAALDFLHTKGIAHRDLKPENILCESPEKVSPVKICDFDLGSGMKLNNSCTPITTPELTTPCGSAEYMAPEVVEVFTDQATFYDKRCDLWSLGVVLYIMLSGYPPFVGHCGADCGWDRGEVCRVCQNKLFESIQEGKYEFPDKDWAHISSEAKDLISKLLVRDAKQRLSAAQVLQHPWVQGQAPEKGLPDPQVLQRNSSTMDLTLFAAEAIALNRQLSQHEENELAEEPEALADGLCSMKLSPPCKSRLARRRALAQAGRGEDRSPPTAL

First: CNC(=O)[C@H]1CCc2c(sc3ncnc(Nc4cc(C)c5n(c4=O)C4(CCCCC4)NC5=O)c23)C1 [Example 4, (7S)—N-Methyl-4-[(8′-methyl-1′,5′-dioxo-1′,5′-dihydro-2′H-spiro[cyclohexane-1,3′-imidazo[1,5-a]pyridin]-6′-yl)amino]-5,6,7,8-tetrahydro[1]benzothieno[2,3-d]pyrimidine-7-carboxamide]
Second: Cc1cc(Nc2ncnc3sc4c(c23)CC[C@H](C(=O)O)C4)c(=O)n2c1C(=O)NC21CCCCC1 [Example 1, (7S)-4-[(8′-Methyl-1′,5′-dioxo-1′,5′-dihydro-2′H-spiro[cyclohexane-1,3′-imidazo[1,5-a]pyridin]-6′-yl)amino]-5,6,7,8-tetrahydro[1]benzothieno[2,3-d]pyrimidine-7-carboxylic acid]
The IC50 of the first is 22-fold lower: 0.4 nM for the first, 9 nM for the second.

First: Cc1cc(Nc2ncnc3sc4c(c23)CC[C@H](C(=O)N2CC(N(C)C)C2)C4)c(=O)n2c1C(=O)NC21CS(=O)(=O)C1 [Example 69, 6-{[(7S)-7-{[3-(Dimethylamino)azetidin-1-yl]carbonyl}-5,6,7,8-tetrahydro[1]benzothieno[2,3-d]pyrimidin-4-yl]amino}-8-methyl-2H-spiro[imidazo[1,5-a]pyridine-3,3′-thietane]-1,5-dione 1′,1′-dioxide]
Second: Cc1cc(Nc2ncnc3sc4c(c23)CC[C@H](C(=O)N2C[C@H]3C[C@@H]2CO3)C4)c(=O)n2c1C(=O)NC21CS(=O)(=O)C1 [Example 72, 8-Methyl-6-({(7S)-7-[(1R,4R)-2-oxa-5-azabicyclo[2.2.1]hept-5-ylcarbonyl]-5,6,7,8-tetrahydro[1]benzothieno[2,3-d]pyrimidin-4-yl}amino)-2H-spiro[imidazo[1,5-a]pyridine-3,3′-thietane]-1,5-dione 1′,1′-dioxide]
The IC50 of the first is 2.9-fold higher: 2 nM for the first, 0.7 nM for the second. The second is the more potent here.

Compared with C[C@@H]1COCCN1C(=O)[C@H]1CCc2c(sc3ncnc(Nc4cc(Cl)c5n(c4=O)C4(CSC4)NC5=O)c23)C1 [Example 106, 8-Chloro-6-({(7S)-7-[(3R)-3-methylmorpholine-4-carbonyl]-5,6,7,8-tetrahydro[1]benzothieno[2,3-d]pyrimidin-4-yl}amino)-2H-spiro[imidazo[1,5-a]pyridine-3,3′-thietane]-1,5-dione], C[C@@H]1COCCN1C(=O)[C@H]1CCc2c(sc3ncnc(Nc4cc(Cl)c5n(c4=O)C4(CCC4)NC5=O)c23)C1 [Example 99, 8′-Chloro-6′-({(7S)-7-[(3R)-3-methylmorpholine-4-carbonyl]-5,6,7,8-tetrahydro[1]benzothieno[2,3-d]pyrimidin-4-yl}amino)-2′H-spiro[cyclobutane-1,3′-imidazo[1,5-a]pyridine]-1′,5′-dione] is 3-fold lower in IC50: 0.3 nM for the first, 0.1 nM for the second.

First: Cc1cc(Nc2ncnc3sc4c(c23)CC[C@H](C(=O)N2CCN(C)[C@H](C)C2)C4)c(=O)n2c1C(=O)N[C@]21CC[C@@](O)(C(F)(F)F)CC1 [Example 83, (cis)-6′-{[(7S)-7-{[(3R)-3,4-Dimethylpiperazin-1-yl]carbonyl}-5,6,7,8-tetrahydro[1]benzothieno[2,3-d]pyrimidin-4-yl]amino}-4-hydroxy-8′-methyl-4-(trifluoromethyl)-2′H-spiro[cyclohexane-1,3′-imidazo[1,5-a]pyridine]-1′,5′-dione]
Second: Cc1cc(Nc2ncnc3sc4c(c23)CC[C@H](C(=O)N2CCC2)C4)c(=O)n2c1C(=O)NC21CCC(F)(F)CC1 [Example 53, 6′-{[(7S)-7-(Azetidin-1-ylcarbonyl)-5,6,7,8-tetrahydro[1]benzothieno[2,3-d]pyrimidin-4-yl]amino}-4,4-difluoro-8′-methyl-2′H-spiro[cyclohexane-1,3′-imidazo[1,5-a]pyridine]-1′,5′-dione]
The IC50 of the first is 9-fold lower: 1.5 nM for the first, 13.5 nM for the second.

First: Cc1cc(Nc2ncnc3sc4c(c23)CC[C@H](C(=O)O)C4)c(=O)n2c1C(=O)NC21CCC(F)(F)CC1 [Example 42, (7S)-4-[(4,4-Difluoro-8′-methyl-1′,5′-dioxo-1′,5′-dihydro-2′H-spiro[cyclohexane-1,3′-imidazo[1,5-a]pyridin]-6′-yl)amino]-5,6,7,8-tetrahydro[1]benzothieno[2,3-d]pyrimidine-7-carboxylic acid]
Second: Cc1cc(Nc2ncnc3sc4c(c23)CC[C@H](C(=O)O)C4)c(=O)n2c1C(=O)NC21CCC1 [Example 16, (7S)-4-[(8′-Methyl-1′,5′-dioxo-1′,5′-dihydro-2′H-spiro[cyclobutane-1,3′-imidazo[1,5-a]pyridin]-6′-yl)amino]-5,6,7,8-tetrahydro[1]benzothieno[2,3-d]pyrimidine-7-carboxylic acid]
The IC50 of the first is 6.3-fold higher: 24.5 nM for the first, 3.9 nM for the second.

Going from CN(C)[C@H]1CCN(C(=O)[C@H]2CCc3c(sc4ncnc(Nc5cc(Cl)c6n(c5=O)C5(CCCCC5)NC6=O)c34)C2)C1 [Example 78, 8′-Chloro-6′-{[(7S)-7-{[(3S)-3-(dimethylamino)pyrrolidin-1-yl]carbonyl}-5,6,7,8-tetrahydro[1]benzothieno[2,3-d]pyrimidin-4-yl]amino}-2′H-spiro[cyclohexane-1,3′-imidazo[1,5-a]pyridine]-1′,5′-dione] to CN(C)[C@H]1CCN(C(=O)[C@H]2CCc3c(sc4ncnc(Nc5cc(Cl)c6n(c5=O)C5(CCCC5)NC6=O)c34)C2)C1 [Example 89, 8′-Chloro-6′-({(7S)-7-[(3S)-3-(dimethylamino)pyrrolidine-1-carbonyl]-5,6,7,8-tetrahydro[1]benzothieno[2,3-d]pyrimidin-4-yl}amino)-2′H-spiro[cyclopentane-1,3′-imidazo[1,5-a]pyridine]-1′,5′-dione], the IC50 falls from 4.8 nM to < 0.1 nM.

Cc1cc(Nc2ncnc3sc4c(c23)CC[C@H](C(=O)N2CC(NC(=O)OC(C)(C)C)C2)C4)c(=O)n2c1C(=O)NC21CCCCC1 [Example 7, tert-Butyl [1-({(7S)-4-[(8′-methyl-1′,5′-dioxo-1′,5′-dihydro-2′H-spiro[cyclohexane-1,3′-imidazo[1,5-a]pyridin]-6′-yl)amino]-5,6,7,8-tetrahydro[1]benzothieno[2,3-d]pyrimidin-7-yl}carbonyl)azetidin-3-yl]carbamate] and Cc1cc(Nc2ncnc3sc4c(c23)CC[C@H](C(=O)N2CCC2)C4)c(=O)n2c1C(=O)NC21CCCC1 [Example 38, 6′-{[(7S)-7-(Azetidin-1-ylcarbonyl)-5,6,7,8-tetrahydro[1]benzothieno[2,3-d]pyrimidin-4-yl]amino}-8′-methyl-2′H-spiro[cyclopentane-1,3′-imidazo[1,5-a]pyridine]-1′,5′-dione] are within 1.5-fold of each other in IC50: 4.2 nM for the first, 3.1 nM for the second.

Going from O=C1NC2(CSC2)n2c1c(Cl)cc(Nc1ncnc3sc4c(c13)CC[C@H](C(=O)O)C4)c2=O [Example 101, (7S)-4-[(8-Chloro-1,5-dioxo-1,5-dihydro-2H-spiro[imidazo[1,5-a]pyridine-3,3′-thietan]-6-yl)amino]-5,6,7,8-tetrahydro[1]benzothieno[2,3-d]pyrimidine-7-carboxylic acid] to Cc1cc(Nc2ncnc3sc4c(c23)CC[C@H](C(=O)N2C3CCC2CC(=O)C3)C4)c(=O)n2c1C(=O)NC21CCCCC1 [Example 13, 8′-Methyl-6′-({(7S)-7-[(3-oxo-8-azabicyclo[3.2.1]oct-8-yl)carbonyl]-5,6,7,8-tetrahydro[1]benzothieno[2,3-d]pyrimidin-4-yl}amino)-2′H-spiro[cyclohexane-1,3′-imidazo[1,5-a]pyridine]-1′,5′-dione], the IC50 falls from 1.8 nM to 0.4 nM (4.5-fold).

From patent US20190388425A1, “SUBSTITUTED IMIDAZOPYRIDINPYRIMIDINES” (Bayer Pharma Aktiengesellschaft, priority 2017, published 2019)
